From patent publication US6596867B2, “Tartrate salt of a substituted dipeptide as growth hormone secretagogue” (Pfizer Inc., priority 1997, dated 2003)
Counter-ions that a name gives are not always drawn.

Assays:
[1] = stability of the crystalline salt (stated property); assay type: physicochemical; conditions: crystalline form
[2] = solubility of the crystalline salt (stated property); assay type: physicochemical; conditions: crystalline form

stability [1]: good stability | solubility [2]: high solubility
Structure (SMILES): CC(C)(N)C(=O)N[C@H](COCc1ccc(F)cc1F)C(=O)N1CCC2=NN(CC(F)(F)F)C(=O)[C@]2(Cc2ccccn2)C1 [2-Amino-N-{1-(2,4-difluoro-benzyloxymethyl)-2-oxo-2-[3-oxo-3a-pyridin-2-ylmethyl-2-(2,2.2-trifluoro-ethyl)-2,3,3a,4,6,7-hexahydro-pyrazolo[4,3-c]pyridin-5-yl]-ethyl}-2-methyl-propionamide L-(+) tartrate]
